# Source: patent US12528802B2, “Heterocyclic compound” (Takeda Pharmaceutical Company Limited, priority 2019, dated 2026)
# Target: T1, glucosylceramide synthase (Homo sapiens, UniProt Q16739)
# T1 construct: made in house; host or cells: Expi293F cells (transient expression, pcDNA3.3-TOPO vector); microsome fraction used as enzyme source
# T1 sequence (Q16739 1-394): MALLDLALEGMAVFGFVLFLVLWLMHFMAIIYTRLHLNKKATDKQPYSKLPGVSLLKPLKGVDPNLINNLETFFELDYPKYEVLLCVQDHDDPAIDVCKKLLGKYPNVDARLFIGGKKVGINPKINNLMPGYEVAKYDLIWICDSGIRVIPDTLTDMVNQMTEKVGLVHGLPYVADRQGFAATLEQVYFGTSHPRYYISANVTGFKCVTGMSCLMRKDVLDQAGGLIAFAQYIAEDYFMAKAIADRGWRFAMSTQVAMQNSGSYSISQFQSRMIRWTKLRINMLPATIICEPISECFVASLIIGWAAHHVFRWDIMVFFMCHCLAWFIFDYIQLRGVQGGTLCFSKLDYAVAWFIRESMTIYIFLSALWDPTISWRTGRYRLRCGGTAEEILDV
# Experiment: Glucosylceramide synthase (GCS) enzyme assay, microsome fraction, C8 glucosylceramide quantified by Rapidfire MS/MS
# Assay type: biochemical
# Details: test compound 10 μM; 1.7 μM UDP-glucose, 3 μM C8 ceramide; room temperature 60 min; read-out: GCS enzyme inhibitory rate at 10 μM (%) (% of control)
# Procedure, shortened: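 Test compound, 10 μM final, was run against human GCS from transfected Expi293F microsome fractions, using substrate solution of 6 μM C8 ceramide (in DOPC liposomes) plus 3.4 μM UDP-glucose, pH 7.5 Tris buffer, 60 min, room temperature. Product C8 glucosylceramide measured by Rapidfire MS/MS against an internal standard, % inhibition referenced to no-enzyme and DMSO wells.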
row,Structure (SMILES),inhibition at 10 µM
1,"CCS(=O)(=O)c1ccc(N2Cc3c(ccnc3-c3ccc(F)cc3OCC(F)(F)F)C2=O)cc1 [Example 110, 2-[4-(ethanesulfonyl)phenyl]-4-[4-fluoro-2-(2,2,2-trifluoroethoxy)phenyl]-2,3-dihydro-1H-pyrrolo[3,4-c]pyridin-1-one]",97%
2,"Fc1ccc(N2Cc3ccnc(-c4ccc(F)cc4OCC(F)(F)F)c3C2)cc1 [Example 111, 2-(4-fluorophenyl)-4-[4-fluoro-2-(2,2,2-trifluoroethoxy)phenyl]-2,3-dihydro-1H-pyrrolo[3,4-c]pyridine]",92%
3,"N#CCOc1cc(F)ccc1-c1nccc2c1CN(c1ccc(OC(F)F)nc1)C2=O [Example 112, (2-{2-[6-(difluoromethoxy)pyridin-3-yl]-1-oxo-2,3-dihydro-1H-pyrrolo[3,4-c]pyridin-4-yl}-5-fluorophenoxy)acetonitrile]",98%
4,"COCCOc1cc(F)ccc1-c1nccc2c1CN(c1ccc(OC(F)F)nc1)C2=O [Example 113, 2-[6-(difluoromethoxy)pyridin-3-yl]-4-[4-fluoro-2-(2-methoxyethoxy)phenyl]-2,3-dihydro-1H-pyrrolo[3,4-c]pyridin-1-one]",66%
5,"O=C1c2ccnc(-c3ccc(F)cc3OCc3ccccc3)c2CN1c1ccc(OC(F)F)cc1 [Example 114, 4-[2-(benzyloxy)-4-fluorophenyl]-2-[4-(difluoromethoxy)phenyl]-2,3-dihydro-1H-pyrrolo[3,4-c]pyridin-1-one]",99%
6,"O=C1CC2=C(CN(c3ccc(F)cc3)C2=O)N(c2ccc(F)cc2OCC(F)(F)F)N1 [Example 115, 6-(4-fluorophenyl)-1-[4-fluoro-2-(2,2,2-trifluoroethoxy)phenyl]-6,7-dihydro-1H-pyrrolo[3,4-c]pyridazine-3,5(2H,4H)-dione]",65%
7,"O=C(c1ccc(-c2nccc3c2CN(c2ccc(OC(F)F)nc2)C3=O)c(OCC(F)(F)F)c1)N1CCC1 [Example 118, 4-[4-(azetidine-1-carbonyl)-2-(2,2,2-trifluoroethoxy)phenyl]-2-[6-(difluoromethoxy)pyridin-3-yl]-2,3-dihydro-1H-pyrrolo[3,4-c]pyridin-1-one]",96%
8,"COc1cc(C(=O)N2CCC2)ccc1-c1nccc2c1CN(c1ccc(F)cc1)C2=O [Example 120, 4-[4-(azetidine-1-carbonyl)-2-methoxyphenyl]-2-(4-fluorophenyl)-2,3-dihydro-1H-pyrrolo[3,4-c]pyridin-1-one]",61%
9,"COc1cc(C(=O)N2CCC2)ccc1-c1nccc2c1CN(c1ccc(OC(F)F)cc1)C2=O [Example 122, 4-[4-(azetidine-1-carbonyl)-2-methoxyphenyl]-2-[4-(difluoromethoxy)phenyl]-2,3-dihydro-1H-pyrrolo[3,4-c]pyridin-1-one]",95%
10,"COc1cc(C(=O)N2CCC2)ccc1-c1nccc2c1CN(c1ccc(OC(F)F)nc1)C2=O [Example 123, 4-[4-(azetidine-1-carbonyl)-2-methoxyphenyl]-2-[6-(difluoromethoxy)pyridin-3-yl]-2,3-dihydro-1H-pyrrolo[3,4-c]pyridin-1-one]",85%
11,"O=C(c1ccc(-c2nccc3c2CN(c2ccc(OC(F)F)cc2)C3=O)c(OC(F)F)c1)N1CCC1 [Example 124, 4-[4-(azetidine-1-carbonyl)-2-(difluoromethoxy)phenyl]-2-[4-(difluoromethoxy)phenyl]-2,3-dihydro-1H-pyrrolo[3,4-c]pyridin-1-one]",98%
12,"O=C(c1ccc(-c2nccc3c2CN(c2ccc(OC(F)F)nc2)C3=O)c(OC(F)F)c1)N1CCC1 [Example 125, 4-[4-(azetidine-1-carbonyl)-2-(difluoromethoxy)phenyl]-2-[6-(difluoromethoxy)pyridin-3-yl]-2,3-dihydro-1H-pyrrolo[3,4-c]pyridin-1-one]",94%
13,"O=C1c2ccnc(-c3ccc(F)cc3OCC3COC3)c2CN1c1ccc(OC(F)F)cc1 [Example 126, 2-[4-(difluoromethoxy)phenyl]-4-{4-fluoro-2-[(oxetan-3-yl)methoxy]phenyl}-2,3-dihydro-1H-pyrrolo[3,4-c]pyridin-1-one]",97%
14,"O=C1c2ccnc(-c3ccc(F)cc3OCC3(F)COC3)c2CN1c1ccc(OC(F)F)cc1 [Example 127, 2-[4-(difluoromethoxy)phenyl]-4-{4-fluoro-2-[(3-fluorooxetan-3-yl)methoxy]phenyl}-2,3-dihydro-1H-pyrrolo[3,4-c]pyridin-1-one]",100%
15,"O=C1c2ccnc(-c3ccc(F)cc3OCC3(F)CC3)c2CN1c1ccc(OC(F)F)cc1 [Example 128, 2-[4-(difluoromethoxy)phenyl]-4-{4-fluoro-2-[(1-fluorocyclopropyl)methoxy]phenyl}-2,3-dihydro-1H-pyrrolo[3,4-c]pyridin-1-one]",99%
16,"O=C1c2ccnc(-c3ccc(F)cc3OCC3CC3)c2CN1c1ccc(OC(F)F)cc1 [Example 129, 4-[2-(cyclopropylmethoxy)-4-fluorophenyl]-2-[4-(difluoromethoxy)phenyl]-2,3-dihydro-1H-pyrrolo[3,4-c]pyridin-1-one]",99%

# More lines, now with the values ahead:
row,inhibition at 10 µM,Structure (SMILES)
1,87%,"O=C1c2ccnc(-c3ccc(F)cc3OCC(F)(F)F)c2CN1c1ccc(OCC(F)F)nc1 [Example 131, 2-[6-(2,2-difluoroethoxy)pyridin-3-yl]-4-[4-fluoro-2-(2,2,2-trifiuoroethoxy)phenyl]-2,3-dihydro-1H-pyrrolo[3,4-c]pyridin-1-one]"
2,96%,"O=C1c2ccnc(-c3ccc(F)cc3OCC(F)(F)F)c2CN1c1ccc(S(=O)(=O)C(F)F)cc1 [Example 139, 2-[4-(difluoromethanesulfonyl)phenyl]-4-[4-fluoro-2-(2,2,2-trifluoroethoxy)phenyl]-2,3-dihydro-1H-pyrrolo[3,4-c]pyridin-1-one]"
3,86%,"CS(=O)(=O)c1ccc(N2Cc3ccnc(-c4ccc(F)cc4OCC(F)(F)F)c3C2)cc1 [Example 140, 4-[4-fluoro-2-(2,2,2-trifluoroethoxy)phenyl]-2-[4-(methanesulfonyl)phenyl]-2,3-dihydro-1H-pyrrolo[3,4-c]pyridine]"
4,90%,"CN(C)C(=O)c1ccc(N2Cc3ccnc(-c4ccc(F)cc4OCC(F)(F)F)c3C2)cc1 [Example 141, 4-{4-[4-fluoro-2-(2,2,2-trifluoroethoxy)phenyl]-1,3-dihydro-2H-pyrrolo[3,4-c]pyridin-2-yl}-N,N-dimethylbenzamide]"
5,77%,"COc1cccc(F)c1-c1nccc2c1CN(c1ccc(F)cc1)C2=O [Example 142, 4-(2-fluoro-6-methoxyphenyl)-2-(4-fluorophenyl)-2,3-dihydro-1H-pyrrolo[3,4-c]pyridin-1-one]"
6,63%,"O=C1C2=C(CN1c1ccc(F)cc1)C(c1ccc(F)cc1OCC(F)(F)F)=NCCN2 [Example 145, 7-(4-fluorophenyl)-5-[4-fluoro-2-(2,2,2-trifluoroethoxy)phenyl]-2,3,6,7-tetrahydropyrrolo[3,4-e][1,4]diazepin-8(1H)-one]"
7,55%,"O=C1c2[nH]nc(-c3ccc(F)cc3OCC(F)(F)F)c2CN1c1ccc(F)cc1 [Example 146, 5-(4-fluorophenyl)-3-[4-fluoro-2-(2,2,2-trifluoroethoxy)phenyl]-4,5-dihydropyrrolo[3,4-c]pyrazol-6(1H)-one]"
8,94%,"COCc1ccc(N2Cc3c(ccnc3-c3ccc(F)cc3OCC(F)(F)F)C2=O)cc1 [Example 147, 4-[4-fluoro-2-(2,2,2-trifluoroethoxy)phenyl]-2-[4-(methoxymethyl)phenyl]-2,3-dihydro-1H-pyrrolo[3,4-c]pyridin-1-one]"
9,99%,"O=C1c2ccc(=O)n(-c3ccccc3OCC(F)(F)F)c2CN1c1ccc(OC(F)(F)F)cc1 [Example 149, 1-[2-(2,2,2-trifluoroethoxy)phenyl]-6-[4-(trifluoromethoxy)phenyl]-6,7-dihydro-1H-pyrrolo[3,4-b]pyridine-2,5-dione]"
10,94%,"O=C1c2ccnc(-c3ccc(F)cc3OCC(F)(F)F)c2CN1c1cnc(OC(F)F)nc1 [Example 151, 2-[2-(difluoromethoxy)pyrimidin-5-yl]-4-[4-fluoro-2-(2,2,2-trifluoroethoxy)phenyl]-2,3-dihydro-1H-pyrrolo[3,4-c]pyridin-1-one]"
11,90%,"O=C(c1ccc(N2Cc3c(ccnc3-c3ccc(F)cc3OCC(F)(F)F)C2=O)cc1)N1CCOCC1 [Example 152, 4-[4-fluoro-2-(2,2,2-trifluoroethoxy)phenyl]-2-[4-(morpholine-4-carbonyl)phenyl]-2,3-dihydro-1H-pyrrolo[3,4-c]pyridin-1-one]"
12,98%,"O=C1c2ccnc(-c3ccc(F)cc3OCC(F)(F)F)c2CN1c1cnn(CC2CC2)c1 [Example 153, 2-[1-(cyclopropylmethyl)-1H-pyrazol-4-yl]-4-[4-fluoro-2-(2,2,2-trifluoroethoxy)phenyl]-2,3-dihydro-1H-pyrrolo[3,4-c]pyridin-1-one]"
13,85%,"COCCn1cc(N2Cc3c(ccnc3-c3ccc(F)cc3OCC(F)(F)F)C2=O)cn1 [Example 154, 4-[4-fluoro-2-(2,2,2-trifluoroethoxy)phenyl]-2-[1-(2-methoxyethyl)-1H-pyrazol-4-yl]-2,3-dihydro-1H-pyrrolo[3,4-c]pyridin-1-one]"
